Test results as given in patent US20140263071A1, “METHOD FOR COLLECTING METALS” (CHEMEC OY AB, priority 2011, published 2014).
Like-named read-outs stand apart in the source and are kept apart here. Marks after values point to notes of the source that are not given here.

How the values were obtained:
[1] = Collection of gold from TS 5 (Example 21); settings: Au^3+ spiked TS 5, pH 3.0, 1a 5 g
Procedure: (§1) A test solution containing 1-15 mg/l of Al^3+, Fe^2/3+, Mg^2+, Mn^2+, Ni^2+ and Zn^2+; 0.1-0.9 mg/l of Ca^2+ and Na^+; and trace amount of other Cr^3+, Co^2+, Cu^2+, Eu^3+, La^3+, Nd^3+, Y^3+, UO2^2+ and Nb^5+ cations were prepared.
TS 5 (100 ml) was spiked with Au^3+ (87.7 mg/ml) Merch Titrisol® standard solution. After pH of the mixture was adjusted to 3.0 by HNO3 sample A was taken followed by adding 1a (5 g). The mixture was stirred at room temperature for 24 h and a sample B was taken. Samples A and B were filtrated separately trough 0.2 μm syringe filter and the concentration of selected element in both solution was determined by using ICP-AES method. The expulsion percent for selected elements were determined from the concentration differences between the samples A and B. Results of gold recovery from TS 5 is given in Table 15.

[2] = Separation of silver with complexation agent by HCl elution (Example 20); settings: for Concentration after 1a: mixture of Ag^+, 1a 10 g, 48 h; for End concentration in 1a: after HCl elutions; for Metals in 0.01M HCl: elution of loaded 1a with 0.01 M HCl (60 ml); for Metals in 0.1M HCl: elution of loaded 1a with 0.1 M HCl (60 ml); for Metals in 1M HCl: elution of loaded 1a with 1 M HCl (60 ml)
Procedure: A mixture of Cu(NO3)2×3H2O (20 ml, 0.1 M), AgNO3 (20 ml, 0.1 M), Fe(NO3)3 (20 ml, 0.1 M), water (40 ml) and 1a (10 g) were stirred for 48 h at room temperature. Solids were collected to sintered disc (porosity G-4), washed with water (60 ml) and eluted with 0.01 M (60 ml), 0.1 M (60 ml) and 1 M (60 ml) HCl solutions. Amounts of each metals in eluted HCl solutions were determined by AAS using standard procedures.

[3] = Solubility of the compounds, molybdenum blue method, UV/Vis 880 nm (Example 6); type: physicochemical; settings: saturated aqueous solution
From the text: The low solubility is achieved by using long carbon chain(s) or aromatic ring(s) in the bisphosphonate structure I. Advantageously, compound I contains 7-16 carbon atoms either in chain, branched chain or cyclic structure or in combination of these structural units between A and X, and preferably in the chain starting from the P-C-P bridging carbon and the number of heteroatomic functional groups excluding the phosphorous functionalities are limited to two or three groups. The solubility decreases even more if compound I contains functional groups which are capable to form twitter ions with each other. Typical examples of twitter ions are acids (e.g., —CO2H or —PO3H2) and bases (amines) in the same molecule. Solubilities of selected bisphosphonate compounds I were determined with UV/Vis spectrophotometer at 880 nm using molybdenum blue method (Finnish Standard Association SFS 3026: Determination of phosphate in water. Finnish Standard Association SFS, Helsinki Finland, 1986).
Solubilities of selected compounds were determined with UV/Vis Spectrophotometer at 880 nm using molybdenum blue method from saturated aqueous samples solutions (Finnish Standard Association SFS 3026: Determination of phosphate in water. Finnish Standard Association SFS, Helsinki Finland, 1986).

[4] = Purification of water draining through the dump site, TS 1 (Example 16)
Procedure: Drainage water sample was taken from dumping site containing polluted soil: ca. 200 mg/l of Ca^2+ and Mg^2+; 0.05-0.3 mg/l of Al^3+, Ba^2+, Mn^2+, Mo^6+, Ni^2+ and Zn^2+; ≦0.05 mg/l of As^3+ (or As^5+), Cd^2+ and Pb^2+; pH 3.53.
Test Sample 1 (TS 1, 100 ml), which initial metal cation concentrations were determined by using ICP-AES method, was treated with 1a (1.0 g) with stirring for 24 h. After filtration trough 0.2 μm syringe filter metal concentrations in solution were determined and removal per cents were calculated. Since TS 1 contained only small amounts of As, Cd and Pb, sample was spiked with known amounts of these metal cations. The spiked sample (100 ml) was treated with 1a (1 g) as original TS 1 sample.

[5] = Simultaneous collection of Al, Ga and V from TS 5 at pH 0.5 (Example 23); settings: spiked TS 5, pH 0.5, 1a 10 g
Procedure: as §1
TS 5 (100 ml) was spiked with known amounts of Al^3+, Ga^3+ and V^4+ Merch Titrisol® standard solutions. After pH of the mixture was adjusted to 0.5 by HNO3 sample A was taken followed by adding 1a (10 g). The mixture was stirred at room temperature for 24 h and sample B was taken. Samples A and B were filtrated separately trough 0.2 μm syringe filter and the concentrations of the studied elements in both solution were determined by using ICP-AES method. The expulsion percent for each element were determined from the concentration differences between the sample A and B. The experimental results are given in Table 17.

SMILES: NCCCCCCCCCCC(O)(P(=O)(O)O)P(=O)(O)O [Compound 1a, 11-Amino-1-hydroxyundecane-1,1-diyldiphosphonic acid]
- Expulsion [%] ([1]; Al^3+): 87.9%
- Expulsion [%] ([1]; Au^3+): 65.0^1) %
- Expulsion [%] ([1]; Cr^3+): 2.6%
- Expulsion [%] ([1]; Fe^2/3+): ≥ 96.6^2) %
- Expulsion [%] ([1]; Mg^2+): 0%
- Expulsion [%] ([1]; Mn^2+): 0%
- Expulsion [%] ([1]; Ni^2+): 1.3%
- Expulsion [%] ([1]; Zn^2+): 1.4%
- Amounts of metals in 1a ([2]; Ag^+): 1320 mg/L
- Concentration after 1a ([2]; Ag^+, initial 2050 mg/l, Cu^2+, Fe^3+): 730 mg/L
- End concentration in 1a ([2]; Ag^+): 1300 mg/L
- Metals in 0.01M HCl ([2]; Ag^+): 10 mg/L
- Metals in 0.1M HCl ([2]; Ag^+): 0 mg/L
- Metals in 1M HCl ([2]; Ag^+): 10 mg/L
- Amounts of metals in 1a ([2]; Cu^2+): 210 mg/L
- Concentration after 1a ([2]; Cu^2+, initial 1310 mg/l, Cu^2+, Fe^3+): 1100 mg/L
- End concentration in 1a ([2]; Cu^2+): 0 mg/L
- Metals in 0.01M HCl ([2]; Cu^2+): 0 mg/L
- Metals in 0.1M HCl ([2]; Cu^2+): 10 mg/L
- Metals in 1M HCl ([2]; Cu^2+): 200 mg/L
- Amounts of metals in 1a ([2]; Fe^3+): 80 mg/L
- Concentration after 1a ([2]; Fe^3+, initial 1040 mg/l, Cu^2+, Fe^3+): 960 mg/L
- End concentration in 1a ([2]; Fe^3+): 0 mg/L
- Metals in 0.01M HCl ([2]; Fe^3+): 10 mg/L
- Metals in 0.1M HCl ([2]; Fe^3+): 10 mg/L
- Metals in 1M HCl ([2]; Fe^3+): 60 mg/L
- solubility [3]: 59 mg/L
- solubility ([3]; read-out: mg/l P (solubility calculated as elemental phosphorus)): 10 mg/L
- Expulsion [%] ([4]; Spiked TS 1, Al^3+): 67%
- Expulsion [%] ([4]; Spiked TS 1, As^3/5+): 0%
- Expulsion [%] ([4]; Spiked TS 1, Ba^2+): 26%
- Expulsion [%] ([4]; Spiked TS 1, Ca^2+): 48%
- Expulsion [%] ([4]; Spiked TS 1, Cd^2+): 96%
- Expulsion [%] ([4]; Spiked TS 1, Mg^2+): 78%
- Expulsion [%] ([4]; Spiked TS 1, Mn^2+): ≥ 51^2) %
- Expulsion [%] ([4]; Spiked TS 1, Ni^2+): 33%
- Expulsion [%] ([4]; Spiked TS 1, Pb^2+): 94%
- Expulsion [%] ([4]; Spiked TS 1, Zn^2+): 90%
- Expulsion [%] ([4]; TS 1, Al^3+): 76%
- Expulsion [%] ([4]; TS 1, Ba^2+): 32%
- Expulsion [%] ([4]; TS 1, Ca^2+): 51%
- Expulsion [%] ([4]; TS 1, Mg^2+): 81%
- Expulsion [%] ([4]; TS 1, Mn^2+): ≥ 57^2) %
- Expulsion [%] ([4]; TS 1, Ni^2+): 50%
- Expulsion [%] ([4]; TS 1, Zn^2+): 89%
- Expulsion [%] ([5]; Al^3+): 99.8^1) %
- Expulsion [%] ([5]; Cr^3+): 0%
- Expulsion [%] ([5]; Fe^2/3+): ≥ 97.0^4) %
- Expulsion [%] ([5]; Ga^3+): 93.2^2) %
- Expulsion [%] ([5]; Mg^2+): 0%
- Expulsion [%] ([5]; Mn^2+): 9%
- Expulsion [%] ([5]; Ni^2+): 0%
- Expulsion [%] ([5]; V^4+): 99.7^3) %
- Expulsion [%] ([5]; Zn^2+): 23%
